Experimental data as given in PubChem BioAssay AID1919010 (Molecular Pharmacology Branch, DTP, NCI, 2023).
“And” between values parts separate entries of the source, which are not always exact repeats. Equal entries are not always repeated.

Tested on: Hs578T complex spheroid growth, percent test/control
Experiment: Anticancer human tumor Hs578T cell line growth inhibition [AhR];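 note: luminescent viability signal as a proxy for spheroid growth; spheroids exposed to agents for one week after three days of growth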
Settings: for viability, T/C: stronger effect = lower value
Outline: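 Spheroids combined tumor cells with HUVEC endothelial cells and human MSCs as stroma. AhR antagonists were paired with standard or investigational drugs, each dosed in half-log steps down from near clinical Cmax, or from 10 microM where Cmax was unknown.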

[1] = curve of first compound, second compound 0.1 µM
[2] = curve of first compound, second compound 0.316 µM
[3] = curve of first compound, second compound 1 µM
[4] = curve of first compound, second compound 3.16 µM
[5] = curve of first compound, second compound 10 µM

`CCc1c2c(nc3ccc(O)cc13)-c1cc3c(c(=O)n1C2)COC(=O)[C@]3(O)CC` + CC(CO)NC(=O)c1cc(-c2ccc(Cl)cc2)nn(-c2cnn(C)c2)c1=O showed an IC50 [1] of 207 nM, an IC50 [2] of 158 nM and an IC50 [3] of 182 nM. For the same molecule, the IC50 [4] was 193 nM, the IC50 [5] was 194 nM and the viability, T/C (second compound 0.1 µM, first compound 0.000949 µM) was 87.1%. It also gave a viability, T/C (second compound 0.1 µM, first compound 0.003 µM) of 86.2%, a viability, T/C (second compound 0.1 µM, first compound 0.00949 µM) of 78.3% and a viability, T/C (second compound 0.1 µM, first compound 0.03 µM) of 76.7%. For the same molecule, the viability, T/C (second compound 0.1 µM, first compound 0.0949 µM) was 65%, the viability, T/C (second compound 0.1 µM, first compound 0.3 µM) was 42.7% and the viability, T/C (second compound 0.316 µM, first compound 0.000949 µM) was 79.3%. It also gave a viability, T/C (second compound 0.316 µM, first compound 0.003 µM) of 88%, a viability, T/C (second compound 0.316 µM, first compound 0.00949 µM) of 82.3% and a viability, T/C (second compound 0.316 µM, first compound 0.03 µM) of 66.3%. It also gave a viability, T/C (second compound 0.316 µM, first compound 0.0949 µM) of 58.2%, a viability, T/C (second compound 0.316 µM, first compound 0.3 µM) of 42% and a viability, T/C (second compound 1 µM, first compound 0.000949 µM) of 81.6%. The viability, T/C (second compound 1 µM, first compound 0.003 µM) was 85%, the viability, T/C (second compound 1 µM, first compound 0.00949 µM) was 86.2% and the viability, T/C (second compound 1 µM, first compound 0.03 µM) was 72.5%. It also gave a viability, T/C (second compound 1 µM, first compound 0.0949 µM) of 59.1%, a viability, T/C (second compound 1 µM, first compound 0.3 µM) of 43.5% and a viability, T/C (second compound 3.16 µM, first compound 0.000949 µM) of 89.3%. For the same molecule, the viability, T/C (second compound 3.16 µM, first compound 0.003 µM) was 94.5%, the viability, T/C (second compound 3.16 µM, first compound 0.00949 µM) was 89.9% and the viability, T/C (second compound 3.16 µM, first compound 0.03 µM) was 74.9%. The viability, T/C (second compound 3.16 µM, first compound 0.0949 µM) was 57.5%, the viability, T/C (second compound 3.16 µM, first compound 0.3 µM) was 45.5% and the viability, T/C (second compound 10 µM, first compound 0.000949 µM) was 82.5%. For the same molecule, the viability, T/C (second compound 10 µM, first compound 0.003 µM) was 82.7%, the viability, T/C (second compound 10 µM, first compound 0.00949 µM) was 78.1% and the viability, T/C (second compound 10 µM, first compound 0.03 µM) was 73.3%. For the same molecule, the viability, T/C (second compound 10 µM, first compound 0.0949 µM) was 64.8% and the viability, T/C (second compound 10 µM, first compound 0.3 µM) was 41.2%.
For `O=C(C=Cc1cccc(S(=O)(=O)Nc2ccccc2)c1)NO` + CC(CO)NC(=O)c1cc(-c2ccc(Cl)cc2)nn(-c2cnn(C)c2)c1=O, the IC50 [1] was 2590 nM, the IC50 [2] was 2510 nM and the IC50 [3] was 2780 nM. For the same molecule, the IC50 [4] was 2420 nM, the IC50 [5] was 2290 nM and the viability, T/C (second compound 0.1 µM, first compound 0.0316 µM) was 112%. It also gave a viability, T/C (second compound 0.1 µM, first compound 0.1 µM) of 113%, a viability, T/C (second compound 0.1 µM, first compound 0.316 µM) of 102% and a viability, T/C (second compound 0.1 µM, first compound 1 µM) of 82.6%. For the same molecule, the viability, T/C (second compound 0.1 µM, first compound 3.16 µM) was 43.2%, the viability, T/C (second compound 0.1 µM, first compound 10 µM) was 2.61% and the viability, T/C (second compound 0.316 µM, first compound 0.0316 µM) was 115%. For the same molecule, the viability, T/C (second compound 0.316 µM, first compound 0.1 µM) was 116%, the viability, T/C (second compound 0.316 µM, first compound 0.316 µM) was 103% and the viability, T/C (second compound 0.316 µM, first compound 1 µM) was 82.5%. The viability, T/C (second compound 0.316 µM, first compound 3.16 µM) was 41.8%, the viability, T/C (second compound 0.316 µM, first compound 10 µM) was 2% and the viability, T/C (second compound 1 µM, first compound 0.0316 µM) was 109%. The viability, T/C (second compound 1 µM, first compound 0.1 µM) was 117%, the viability, T/C (second compound 1 µM, first compound 0.316 µM) was 106% and the viability, T/C (second compound 1 µM, first compound 1 µM) was 89.8%. It also gave a viability, T/C (second compound 1 µM, first compound 3.16 µM) of 45.1%, a viability, T/C (second compound 1 µM, first compound 10 µM) of 2.32% and a viability, T/C (second compound 3.16 µM, first compound 0.0316 µM) of 106%. It also gave a viability, T/C (second compound 3.16 µM, first compound 0.1 µM) of 113%, a viability, T/C (second compound 3.16 µM, first compound 0.316 µM) of 107% and a viability, T/C (second compound 3.16 µM, first compound 1 µM) of 80.8%. For the same molecule, the viability, T/C (second compound 3.16 µM, first compound 3.16 µM) was 41.1%, the viability, T/C (second compound 3.16 µM, first compound 10 µM) was 2.02% and the viability, T/C (second compound 10 µM, first compound 0.0316 µM) was 93.5%. It also gave a viability, T/C (second compound 10 µM, first compound 0.1 µM) of 94.8%, a viability, T/C (second compound 10 µM, first compound 0.316 µM) of 93.6% and a viability, T/C (second compound 10 µM, first compound 1 µM) of 70.5%. It also gave a viability, T/C (second compound 10 µM, first compound 3.16 µM) of 42.1% and a viability, T/C (second compound 10 µM, first compound 10 µM) of 1.62%.
`O=C(C=Cn1cnc(-c2cc(C(F)(F)F)cc(C(F)(F)F)c2)n1)NNc1cnccn1` was tested, and the viability, T/C (compound 0.00949 µM) was 91.2% and 92.5% and 96.9%, the viability, T/C (compound 0.03 µM) was 95.9% and 92.7% and 88.6% and the viability, T/C (compound 0.0949 µM) was 90.4% and 70.7% and 77.7%. The viability, T/C (compound 0.3 µM) was 54.4% and 32.3% and 45.1%, the viability, T/C (compound 0.949 µM) was 18.8% and 10% and 17.4% and the viability, T/C (compound 3 µM) was 15.7% and 10.8% and 15.9%. For the same molecule, the IC50 (curve of compound) was 346 nM and 176 nM and 244 nM.
`Nc1ccn(C2OC(CO)C(O)C2(F)F)c(=O)n1` (stereo not drawn) was tested, and the viability, T/C (compound 0.0316 µM) was 47.9% and 47.2% and 52.3%, the viability, T/C (compound 0.1 µM) was 58.5% and 48.9% and 52.8% and the viability, T/C (compound 0.316 µM) was 58.5% and 51% and 51.5%. The viability, T/C (compound 1 µM) was 52.4% and 51.2% and 50.9%, the viability, T/C (compound 3.16 µM) was 50.7% and 50.1% and 51.2% and the viability, T/C (compound 10 µM) was 56.5% and 43.3% and 49%.
